# Patent publication US20070049559A1, “Preparations comprising arylazine substituted with a carbonylic moiety to increase the activity of Gelatinase A in ocular cells” (priority 2005, published 2007)
# System: MT-MMP
# Assay: Thiopeptolide assay of cell-associated gelatinase activity ascribed to MT-MMP in TM cells
# Assay type: cell-based, Rhesus monkey
# Settings: benzathine (as diacetate salt) combined with an equal weight of test compound in the incubation medium
# Description: Unless specifically noted, all molecules tested were prepared as stock solutions in dimethyl sulfoxide (DMSO) with a final concentration of 10 mg/ml. The stocks were stored in a dessicator at −20 degrees Celsius. In testing the molecules, the molecules were diluted to final concentrations of 0.3 ug/ml and 15 ug/ml in a simplified culture medium based on Ames' medium, called Concanavalin A (Con A) conditioning medium (CACM). The monkey TM cells were incubated with the test molecules for 48 hours.
# Control medium of CACM plus DMSO and a positive control with 5 ug/ml Con A plus DMSO were run in parallel. […]
# At the end of the incubation period, by means of a spectrophoto-metric plate reader, the optical density (OD) at 410 nm was determined for each well after automatic subtraction of a blank value for a well containing reaction mixture but without cells. The average OD at the two-hour end point for each test molecule at all concentrations in triplicate was calculated. […] As an alternate to the end point OD reading, one may use the mean rate of appearance of the reaction product (mean V), calculated from the best linear fit of the data to absorbance vs. time. […]
smiles,measurement,value
"O=C(O)c1cc(O)c2ccccc2n1 [Kynurenic Acid, kynurenic acid]",MT-MMP activity in combination with benzathine,evince MT-MMP activity
